Where “and” joins values, the source holds several entries; their conditions need not be identical. Equal entries are not always repeated. Where two headings read alike, the source gives them in different places. Where a SMILES comes first, the peptide text is derived from it. [ ]: non-standard residue; d: D form. The star is where a group is joined. Palmitoyl = CCCCCCCCCCCCCCCC(=O)*; Pentanoyl(4-Me) = CC(C)CCC(=O)*; Octanoyl = CCCCCCCC(=O)*; Hexanoyl = CCCCCC(=O)*; Pentanoyl = CCCCC(=O)*; Butyryl = CCCC(=O)*
Tests used:
[1] = test system: Pseudomonas syringae pv. syringae EPS94; format: cell-based; conditions: 48 h
Experimental: (§1) The following plant pathogenic bacterial strains were used: Erwinia amylovora PMV6076 (Institut National de la Recherche Agronomique, Angers, France), Pseudomonas syringae pv. syringae EPS94 (Institut de Tecnologia Agroalimentària, Universitat de Girona, Spain) and Xanthomonas axonopodis pv. vesicatoria 2133–2 (Instituto Valenciano de Investigaciones Agrarias, Valencia, Spain). All bacteria were stored in Luria Bertani (LB) broth supplemented with glycerol (20%) and maintained at -80°C. Bacteria were scrapped from LB agar after growing for 24–48 h at 25°C. The cell material was suspended in sterile water to obtain a suspension of 10^8 CFU mL^-1.
(§2) Lyophilized peptides were solubilized in sterile Milli-Q water to a final concentration of 1 mM and filter sterilized through a 0.22-μm pore filter. For minimum inhibitory concentration (MIC) assessment, dilutions of the compounds were made to obtain a stock concentration of […]. For antibacterial activity twenty microlitres of each dilution were mixed in a microtiter plate well with 20 μL of the corresponding suspension of the bacterial indicator, 160 μL of Trypticase Soy Broth (TSB) (BioMèrieux, France) to a total volume of 200 μL. For antifungal activity 20 μL of each stock solution were mixed in a microtiter plate well with 80 μL of the corresponding suspension of the fungal pathogen and 100 μL of double concentrated PDB to a total volume of 200 μL containing 0.003% w/v of choramphenicol.
(§3) Three replicates for each strain, compound and concentration were used. Microbial growth was determined by optical density measurement at 600 nm (Bioscreen C, Labsystem, Helsinki, Finland). For antibacterial activity microplates were incubated at 25°C with 20 sec shaking before hourly absorbance measurement for 48 h. For antifungal activity microplates were incubated at 20°C with 1 min shaking before absorbance measurement that were done every two hours during seven days. The experiment was repeated twice. The MIC was taken as the lowest compound concentration with no growth at the end of the experiment.

[2] = test system: Xanthomonas axonopodis pv. vesicatoria 2133–2; format: cell-based; conditions: TSB, 25°C, 48 h, OD 600 nm; tested at 3.1, 6.2, 12.5, 25, 50 μM; three replicates, experiment repeated twice; MIC = lowest concentration with no growth
Experimental: as §1, §2, §3

[3] = test system: Erwinia amylovora PMV6076; experiment: MIC, in vitro growth inhibition; format: cell-based; conditions: TSB, 25°C, 48 h, OD 600 nm; tested at 3.1, 6.2, 12.5, 25, 50 μM; three replicates, experiment repeated twice; MIC = lowest concentration with no growth
Experimental: as §1, §2, §3

[4] = test system: Fusarium oxysporum f. sp. lycopersici FOL 3 race 2; experiment: MIC, antifungal growth inhibition; format: cell-based
Experimental: Fusarium oxysporum f. sp. lycopersici FOL 3 race 2 (ATCC 201829, American Type Culture Collection) was used as fungal pathogen. The strain was cultured on potato dextrose agar (PDA) plates (Difco) and microconidia were obtained after growth at 25°C. The concentration of conidia was determined using a hemacytometer and adjusted to 10^4 conidia mL^-1.
as §2, §3

[5] = test system: erythrocyte suspensions of horse blood; conditions: horse erythrocytes 5% vol/vol, TRIS buffer pH 7.2, 1 h at 37°C, absorbance 540 nm, relative to melittin 100 μM, ± confidence interval (α = 0.05); for Hemolysis (%) 150 µM: 150 µM peptide; for Hemolysis (%) 250 µM: 250 µM peptide;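 for all read-outs here: Read-out is hemoglobin release into the supernatant, with a buffer-only blank subtracted as the 0% baseline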
[6] = PDB with 0.003% chloramphenicol, 20°C, seven days, OD 600 nm, tested at 3.1, 6.2, 12.5, 25, 50 μM, three replicates, repeated twice

| SMILES | MIC Pss [1] | MIC Xav [2] | MIC Ea [3] | MIC Fo [4, 6] | Hemolysis (%) 150 µM [5] | Hemolysis (%) 250 µM [5] | MIC Fo [4] |
| --- | --- | --- | --- | --- | --- | --- | --- |
| CCCCCCCCCCCCCCCC(=O)NCCCC[C@@H]1NC(=O)[C@H](CCCCN)NC(=O)[C@H](CC(C)C)NC(=O)[C@H](CCCCN)NC(=O)[C@H](CCCCN)NC(=O)[C@H](CCC(N)=O)NC(=O)[C@H](CC(C)C)NC(=O)[C@H](CCCCN)NC(=O)[C@H](CCCCN)NC(=O)[C@H](Cc2ccccc2)NC1=O [BPC502, c(KKLKK(CO-C15H31)FKKLQ)] (cyclo(FKKLQKKLKK(Palmitoyl))) | >50 µM | >50 µM | >50 µM | >50 µM | 78 ± 1% | 99 ± 2% |  |
| CCCC(=O)NCCCC[C@H]1NC(=O)[C@H](CCCCN)NC(=O)[C@H](CCC(N)=O)NC(=O)[C@H](CC(C)C)NC(=O)[C@H](CCCCN)NC(=O)[C@H](CCCCN)NC(=O)[C@H](Cc2ccccc2)NC(=O)[C@H](CCCCN)NC(=O)[C@H](CCCCN)NC(=O)[C@H](CC(C)C)NC1=O [BPC704] (cyclo(FKKLQK[dK](Butyryl)LKK)) | 6.2 to 12.5 µM | 6.2 to 12.5 µM | 25 to 50 µM | 12.5 to 25 µM | 9 ± 1% | 16 ± 2% |  |
| CCCC(=O)NCCCC[C@@H]1NC(=O)[C@H](CCCCN)NC(=O)[C@H](CC(C)C)NC(=O)[C@H](CCCCN)NC(=O)[C@H](CCCCN)NC(=O)[C@H](CCC(N)=O)NC(=O)[C@H](CC(C)C)NC(=O)[C@H](CCCCN)NC(=O)[C@H](CCCCN)NC(=O)[C@H](Cc2c[nH]cn2)NC1=O [BPC718, c(KKLKK(CO-C3H7)HKKLQ)] (cyclo(HKKLQKKLKK(Butyryl))) | 12.5 to 25 µM | 12.5 to 25 µM | >50 µM | 6.2 to 12.5 µM | 3 ± 1% | 4 ± 1% |  |
| CCCCC(=O)NCCCC[C@@H]1NC(=O)[C@H](CCCCN)NC(=O)[C@H](CC(C)C)NC(=O)[C@H](CCCCN)NC(=O)[C@H](CCCCN)NC(=O)[C@H](CCC(N)=O)NC(=O)[C@H](CC(C)C)NC(=O)[C@H](CCCCN)NC(=O)[C@H](CCCCN)NC(=O)[C@H](Cc2ccccc2)NC1=O [BPC526, c(KKLKK(CO-C4H9)FKKLQ)] (cyclo(FKKLQKKLKK(Pentanoyl))) | 12.5 to 25 µM | <3.1 µM | 12.5 to 25 µM | 6.2 to 12.5 µM | 62 ± 2% | 78 ± 3% |  |
| CCCCCC(=O)NCCCC[C@@H]1NC(=O)[C@H](Cc2ccccc2)NC(=O)[C@H](CCCCN)NC(=O)[C@H](CCCCN)NC(=O)[C@H](CC(C)C)NC(=O)[C@H](CCCCN)NC(=O)[C@H](CCCCN)NC(=O)[C@H](CCC(N)=O)NC(=O)[C@H](CC(C)C)NC(=O)[C@H](CCCCN)NC1=O [BPC584, c(KKLKKFK(CO-nC5H11)KLQ)] (cyclo(FK(Hexanoyl)KLQKKLKK)) | 12.5 to 25 µM | 6.2 to 12.5 µM | 25 to 50 µM | 25 to 50 µM | 72 ± 5% | 97 ± 12% |  |
| CCCC(=O)NCCCC[C@@H]1NC(=O)[C@H](CCC(N)=O)NC(=O)[C@H](CC(C)C)NC(=O)[C@H](CCCCN)NC(=O)[C@H](CCCCN)NC(=O)[C@H](Cc2c[nH]cn2)NC(=O)[C@H](CCCCN)NC(=O)[C@H](CCCCN)NC(=O)[C@H](CC(C)C)NC(=O)[C@H](CCCCN)NC1=O [BPC722] (cyclo(HKKLQK(Butyryl)KLKK)) | >50 µM | 25 to 50 µM | >50 µM | 3.1 to 6.2 µM | 3 ± 0.2% | 3 ± 0.1% |  |
| CC(C)CCC(=O)NCCCC[C@H]1NC(=O)[C@H](CCCCN)NC(=O)[C@H](CC(C)C)NC(=O)[C@H](CCCCN)NC(=O)[C@H](CCCCN)NC(=O)[C@H](CCC(N)=O)NC(=O)[C@H](CC(C)C)NC(=O)[C@H](CCCCN)NC(=O)[C@H](CCCCN)NC(=O)[C@H](Cc2ccccc2)NC1=O [BPC630, c(KKLKk(CO-isoC5H11)FKKLQ)] (cyclo(FKKLQKKLK[dK](Pentanoyl(4-Me)))) | 6.2 to 12.5 µM | 6.2 to 12.5 µM | 25 to 50 µM | 6.2 to 12.5 µM | 22 ± 2% | 28 ± 3% |  |
| CCCCCC(=O)NCCCC[C@H]1NC(=O)[C@H](CCCCN)NC(=O)[C@H](CCC(N)=O)NC(=O)[C@H](CC(C)C)NC(=O)[C@H](CCCCN)NC(=O)[C@H](CCCCN)NC(=O)[C@H](Cc2ccccc2)NC(=O)[C@H](CCCCN)NC(=O)[C@H](CCCCN)NC(=O)[C@H](CC(C)C)NC1=O [BPC678] (cyclo(FKKLQK[dK](Hexanoyl)LKK)) | 12.5 to 25 µM | 6.2 to 12.5 µM | 25 to 50 µM | 3.1 to 6.2 µM | 68 ± 3% | 73 ± 4% |  |
| CCCCCC(=O)NCCCC[C@@H]1NC(=O)[C@H](CC(C)C)NC(=O)[C@H](CCCCN)NC(=O)[C@H](CCCCN)NC(=O)[C@H](CCC(N)=O)NC(=O)[C@H](CC(C)C)NC(=O)[C@H](CCCCN)NC(=O)[C@H](CCCCN)NC(=O)[C@H](Cc2ccccc2)NC(=O)[C@H](CCCCN)NC1=O [BPC586, c(KKLK(CO-nC5H11)KFKKLQ)] (cyclo(FKKLQKKLK(Hexanoyl)K)) | 6.2 to 12.5 µM | 6.2 to 12.5 µM | 12.5 to 25 µM | 12.5 to 25 µM | 92 ± 9% | 95 ± 20% |  |
| CCCCCCCC(=O)NCCCC[C@@H]1NC(=O)[C@H](CCCCN)NC(=O)[C@H](CC(C)C)NC(=O)[C@H](CCCCN)NC(=O)[C@H](CCCCN)NC(=O)[C@H](CCC(N)=O)NC(=O)[C@H](CC(C)C)NC(=O)[C@H](CCCCN)NC(=O)[C@H](CCCCN)NC(=O)[C@H](Cc2ccccc2)NC1=O [BPC498, c(KKLKK(CO-C7H15)FKKLQ)] (cyclo(FKKLQKKLKK(Octanoyl))) | 12.5 to 25 µM | 6.2 to 12.5 µM | 25 to 50 µM | 3.1 to 6.2 µM | 78 ± 4% | 100 ± 12% |  |
| CCCCCC(=O)NCCCC[C@@H]1NC(=O)[C@H](CCCCN)NC(=O)[C@H](CCC(N)=O)NC(=O)[C@H](CC(C)C)NC(=O)[C@H](CCCCN)NC(=O)[C@H](CCCCN)NC(=O)[C@H](Cc2c[nH]cn2)NC(=O)[C@H](CCCCN)NC(=O)[C@H](CCCCN)NC(=O)[C@H](CC(C)C)NC1=O [BPC682] (cyclo(HKKLQKK(Hexanoyl)LKK)) | 12.5 to 25 µM | 12.5 to 25 µM | 25 to 50 µM | 3.1 to 6.2 µM | 20 ± 3% | 27 ± 1% |  |
| CCCCCCCC(=O)NCCCC[C@@H]1NC(=O)[C@H](CCCCN)NC(=O)[C@H](CC(C)C)NC(=O)[C@H](CCCCN)NC(=O)[C@H](CCCCN)NC(=O)[C@H](CCC(N)=O)NC(=O)[C@H](CC(C)C)NC(=O)[C@H](CCCCN)NC(=O)[C@H](CCCCN)NC(=O)[C@@H](Cc2ccccc2)NC1=O [BPC668, c(KKLKK(CO-C7H15)fKKLQ)] (cyclo(KKLKK(Octanoyl)[dF]KKLQ)) | 12.5 to 25 µM | 6.2 to 12.5 µM | 25 to 50 µM | 6.2 to 12.5 µM | 79 ± 2% | 79 ± 1% |  |
| CCCC(=O)NCCCC[C@@H]1NC(=O)[C@H](CCCCN)NC(=O)[C@H](CC(C)C)NC(=O)[C@H](CCCCN)NC(=O)[C@H](CCCCN)NC(=O)[C@H](CCC(N)=O)NC(=O)[C@H](CC(C)C)NC(=O)[C@H](CCCCN)NC(=O)[C@H](CCCCN)NC(=O)[C@@H](Cc2ccccc2)NC1=O [BPC712, c(KKLKK(CO-C3H7)fKKLQ)] (cyclo(KKLKK(Butyryl)[dF]KKLQ)) | 12.5 to 25 µM | 3.1 to 12.5 µM and 3.1 to 6.2 µM | 25 to 50 µM | 3.1 to 6.2 µM | 30 ± 4% | 38 ± 7% | 3.1 to 6.2 µM |

Reference: publication PMC4805166, “Synthetic Cyclolipopeptides Selective against Microbial, Plant and Animal Cell Targets by Incorporation of D-Amino Acids or Histidine” (PLoS ONE, 2016)
